# Test results as given in PMC7367283, “A PIP2 substitute mediates voltage sensor-pore coupling in KCNQ activation” (Communications Biology, 2020).
# “And” between values parts separate entries of the source, which are not always exact repeats. Equal values may be shown once.
# Molecular target: KCNQ2/KCNQ3 (Homo sapiens, UniProt O43525+O43526)
# Assay: Two-electrode voltage clamp of KCNQ2+KCNQ3 in Xenopus oocytes
# Type: cell-based
# Conditions: Q2/Q3, individual oocytes
# Description: KCNQ2 and KCNQ3 form a channel complex that carries M currents in neurons. Similar to KCNQ1, these KCNQ subunits require PIP2 for voltage-dependent activation. KCNQ2 alone can express functional channels in Xenopus oocytes, while KCNQ3 alone cannot. However, a single mutation, A315T, allows KCNQ3 to functionally express in Xenopus oocytes. We examined the effects of CP1 on KCNQ2, KCNQ3 with mutation A315T (denoted as KCNQ3*), KCNQ2+KCNQ3, and KCNQ2+KCNQ3* expressed in Xenopus oocytes (Fig. 5a). Similar to the effects on KCNQ1 and IKs channels, CP1 changed the amplitude of currents (Fig. 5b), shifted the G–V relation to more negative voltages (Fig. 5c), and slowed the deactivation kinetics (Fig. 5d) for all of these KCNQ channels. These CP1 effects were relatively small on KCNQ2 as compared with those on other KCNQ channels, and the effects on KCNQ2/KCNQ3* and KCNQ2/KCNQ3 complexes were closer to those on KCNQ2 alone.
# Fig. 5 Subtype selectivity of CP1 on KCNQ channels. a Current traces of KCNQ channels as indicated in the absence and the presence of 10 µM CP1. […]
# The whole-oocyte ionic currents were recorded with a GeneClamp 500B amplifier (Axon Instruments, CA) or iTEV90 amplifier (HEKA, Germany) and then sampled at 1 kHz and low-pass-filtered at 2 kHz. […] The Kir1.1 current was recorded with a high K^+ bath solution containing (in mM) 96 KCl, 4 NaCl, 1 CaCl2, 2 MgCl2, and 10 HEPES, pH 7.3–7.4. The HCN4 current was recorded in ND66 solution containing (in mM) 66 NaCl, 32 KCl, 1.8 CaCl2, 1 MgCl2, and 5 HEPES, pH 7.6. All the other potassium channels were recorded in ND96 solution. The currents of CaV1.2 channel were recorded in 40 mM Ba^2+ bath solution containing (in mM) 40 Ba(OH)2, 50 TEA-OH, 2 KOH, and 5 HEPES, adjusted to pH 7.4 with methanesulfonic acid. […] The HCN4 currents were recorded by a test pulse between −30 and −140 mV in 10-mV step from a holding potential of −30 mV. […]
smiles,measurement,setting,value
"O=S(=O)([O-])Oc1c(-c2sc3c(ccc4cccc(Cl)c43)c2OS(=O)(=O)[O-])[nH]c2ccc(Br)cc12.[Na+].[Na+] [CP1, DISODIUM 5-BROMO-2-[9-CHLORO-3-(SULFONATOOXY) NAPHTHO [1,2-B] THIEN-2-YL]-1H-INDOL-3-YL SULFATE]",outward current (Icp1/Ictrl),"10 µM CP1, at −10 mV",1.7551 and 1.3309 and 1.0976 and 1.4059
same,∆V1/2,10 µM CP1,15.349 mV and 10.5931 mV and 18.0231 mV and 10.5937 mV
same,τ deact at -120 mV,10 µM CP1 treated,0.1194 s and 0.1528 s and 0.295 s and 0.1626 s
